Molecules are shown by their SMILES.

In the assay the test system is HCC 1806 cells. In words: Cell proliferation inhibitory effect on human breast cancer cell line (crystal violet, 72 hours). The note with it: Homo sapiens, HCC1806, 72 h, read-out: Cell growth suppression IC50. Format: cell-based. A digest of the protocol: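 Cells were seeded at 2,000/well in RPMI-1640 with 10% FBS and grown 1 day, then exposed to compound for 72 h at 37° C, 5% CO2. After glutaraldehyde fixation and 0.05% crystal violet staining, extracted dye was read at 540 nm. IC50 (μM) came from growth inhibition relative to untreated and cell-free wells.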
Regarding `Cc1c(Cl)ccc(F)c1[C@@H](C)[C@H](NS(=O)(=O)c1ccc(Cl)c2c1OCCN2C)c1n[nH]c(=O)o1` [Example 289, 5-chloro-N-((1S,2R)-2-(3-chloro-6-fluoro-2-methylphenyl)-1-(5-oxo-4,5-dihydro-1,3,4-oxadiazol-2-yl)propyl)-4-methyl-3,4-dihydro-2H-benzo[b][1,4]oxazine-8-sulfonamide], the IC50 (usually the midpoint of a concentration-inhibition curve) stood at 600 nM. As to `COc1c(S(=O)(=O)N[C@H](c2n[nH]c(=O)o2)[C@H](C)c2c(F)ccc(C)c2C)ccc(Cl)c1C(C)=O` [Example 294, 3-acetyl-4-chloro-N-((1S,2R)-2-(6-fluoro-2,3-dimethylphenyl)-1-(5-oxo-4,5-dihydro-1,3,4-oxadiazol-2-yl)propyl)-2-methoxybenzenesulfonamide], the half-maximal inhibitory concentration (IC50) was found to be 390 nM.

Consider `COc1cc(Cl)ccc1S(=O)(=O)N[C@H](c1n[nH]c(=O)o1)[C@H](C)c1c(F)ccc(-c2cn[nH]c2)c1C` [Example 303, 4-chloro-N-((1S,2R)-2-(6-fluoro-2-methyl-3-(1H-pyrazol-4-yl)phenyl)-1-(5-oxo-4,5-dihydro-1,3,4-oxadiazol-2-yl)propyl)-2-methoxybenzenesulfonamide], for which the IC50 was 990 nM. Turning to `COc1cc(Cl)ccc1S(=O)(=O)N[C@H](c1n[nH]c(=O)o1)[C@H](C)c1c(F)ccc(-c2cnn(C(F)F)c2)c1C` [Example 304, 4-chloro-N-((1S,2R)-2-(3-(1-(difluoromethyl)-1H-pyrazol-4-yl)-6-fluoro-2-methylphenyl)-1-(5-oxo-4,5-dihydro-1,3,4-oxadiazol-2-yl)propyl)-2-methoxybenzenesulfonamide], the IC50 came to 940 nM. The figure for `COc1cc(Cl)ccc1S(=O)(=O)N[C@H](c1n[nH]c(=O)o1)[C@H](C)c1c(F)ccc(-c2c[nH]nc2C)c1C` [Example 308, 4-chloro-N-((1S,2R)-2-(6-fluoro-2-methyl-3-(3-methyl-1H-pyrazol-4-yl)phenyl)-1-(5-oxo-4,5-dihydro-1,3,4-oxadiazol-2-yl)propyl)-2-methoxybenzenesulfonamide] is 870 nM; for `CCn1cc(-c2ccc(F)c([C@@H](C)[C@H](NS(=O)(=O)c3ccc(Cl)cc3OC)c3n[nH]c(=O)o3)c2C)cn1` [Example 310, 4-chloro-N-((1S,2R)-2-(3-(1-ethyl-1H-pyrazol-4-yl)-6-fluoro-2-methylphenyl)-1-(5-oxo-4,5-dihydro-1,3,4-oxadiazol-2-yl)propyl)-2-methoxybenzenesulfonamide] it is 350 nM.

As for `COc1cc(Cl)ccc1S(=O)(=O)N[C@H](c1n[nH]c(=O)o1)[C@H](C)c1c(F)ccc(-c2cnn(C3CC3)c2)c1C` [Example 311, 4-chloro-N-((1S,2R)-2-(3-(1-cyclopropyl-1H-pyrazol-4-yl)-6-fluoro-2-methylphenyl)-1-(5-oxo-4,5-dihydro-1,3,4-oxadiazol-2-yl)propyl)-2-methoxybenzenesulfonamide], the IC50 was found to be 520 nM. Consider `COc1cc(Cl)ccc1S(=O)(=O)N[C@H](c1n[nH]c(=O)o1)[C@H](C)c1c(F)ccc(-c2cnn(C3CCC3)c2)c1C` [Example 312, 4-chloro-N-((1S,2R)-2-(3-(1-cyclobutyl-1H-pyrazol-4-yl)-6-fluoro-2-methylphenyl)-1-(5-oxo-4,5-dihydro-1,3,4-oxadiazol-2-yl)propyl)-2-methoxybenzenesulfonamide], for which the IC50 is 870 nM.

`COc1cc(Cl)ccc1S(=O)(=O)N[C@H](c1n[nH]c(=O)o1)[C@H](C)c1c(F)ccc(-c2ccc(N3CCOCC3)nc2)c1C` [Example 315, 4-chloro-N-((1S,2R)-2-(6-fluoro-2-methyl-3-(6-morpholinopyridin-3-yl)phenyl)-1-(5-oxo-4,5-dihydro-1,3,4-oxadiazol-2-yl)propyl)-2-methoxybenzenesulfonamide]: the IC50 came out at 930 nM. As to `Cc1c(Br)ccc(F)c1[C@@H](C)[C@H](NS(=O)(=O)c1ccc(Cl)c2c1OCCC2(C)N)c1n[nH]c(=O)o1` (stereo partly drawn) [Example 329, 4-amino-N-((1S,2R)-2-(3-bromo-6-fluoro-2-methylphenyl)-1-(5-oxo-4,5-dihydro-1,3,4-oxadiazol-2-yl)propyl)-5-chloro-4-methyl-chroman-8-sulfonamide], the IC50 turned out to be 240 nM. The figure for `Cc1ccc(F)c([C@@H](C)[C@@H](c2n[nH]c(=O)o2)N(C)S(=O)(=O)c2ccc(Cl)cc2C(N)=O)c1C` [Example 337, 5-chloro-2-(N-((1S,2R)-2-(6-fluoro-2,3-dimethylphenyl)-1-(5-oxo-4,5-dihydro-1,3,4 oxadiazol-2-yl)propyl)-N-methylsulfamoyl)benzamide] is 300 nM.
